According to patent US20240075033A1, “ALK5 INHIBITORS FOR TREATING MYELODYSPLASTIC SYNDROME” (Sumitomo Pharma Oncology, Inc., priority 2019, published 2024):
Structures can show the parent of a compound that is named as a salt. Where two headings read alike, the source gives them in different places.

Columns and labels:
[1] = Hygroscopicity (DVS tests); type: physicochemical; conditions: for Hygroscopicity (%): water uptake at 25° C./80% RH
[2] = Solid-state stability under 40° C./75% RH for one week; type: physicochemical
[3] = Kinetic solubility in pH 2, 5, and 7 buffers; type: physicochemical; conditions: for Kinetic Solubility: in pH 2, 5 and 7 buffers, compared with freebase Form A
ALK5 [4] = target: T1, ALK5 (Homo sapiens, UniProt P36897); experiment: ALK5 nanobret assay in HEK293 cells transfected with ALK5-Nanoluc fusion; type: binding; conditions: luciferase tagged ALK5, fluorescent tracer competition (BRET), structure (I) tested as HCl salt
T1 sequence (P36897 34-503): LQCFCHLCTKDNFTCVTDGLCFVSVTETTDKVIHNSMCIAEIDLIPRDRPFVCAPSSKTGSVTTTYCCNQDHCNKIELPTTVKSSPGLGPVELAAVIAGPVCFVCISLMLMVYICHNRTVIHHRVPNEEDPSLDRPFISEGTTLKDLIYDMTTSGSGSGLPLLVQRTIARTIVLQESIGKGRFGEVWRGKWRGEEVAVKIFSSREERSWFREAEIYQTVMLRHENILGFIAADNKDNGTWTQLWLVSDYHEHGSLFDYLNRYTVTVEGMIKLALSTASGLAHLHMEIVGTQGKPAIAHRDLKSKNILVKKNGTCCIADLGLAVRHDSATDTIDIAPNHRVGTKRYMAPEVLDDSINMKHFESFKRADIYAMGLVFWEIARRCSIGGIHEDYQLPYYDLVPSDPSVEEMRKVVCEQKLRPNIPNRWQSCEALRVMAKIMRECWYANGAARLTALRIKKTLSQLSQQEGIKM
Description: An HCl salt of the compound of structure (I) was tested in an ALK5 nanobret assay. HEK293 cells were transfected with the ALK5-Nanoluc fusion (Promega) vector, which encodes for a luciferase tagged form of ALK5. For testing of the compound of structure (I), transfected cells were pretreated with drug. Subsequently, a fluorescent tracer was added and the fluorescence signal was measured.
In this assay, luminescence develops via the nanoluciferase tagged ALK5, which can transfer signal via bioluminescence energy transfer (BRET) to the tracer, yielding a fluorescent signal.

ALK5 [5] = target: T1, ALK5; experiment: Rhabdomyosarcoma (RD) cell SMAD reporter (RDSR) assay; type: cell-based; design: The RD cell line was transfected with the pGL4.48(luc2P/SBE/Hygro) vector; endogenous in cells; host or cells: RD rhabdomyosarcoma cells stably transfected with the SBE-luciferase reporter only; conditions: RD cells transfected with pGL4.48(luc2P/SBE/Hygro) vector, pretreated with drug, induced with 50 pg/mL TGFβ1 for up to 24 hours; structure (I) tested as HCl salt

| form change after DVS tests [1] | Hygroscopicity (%) [1] | Solid-state Stability [2] | Hygroscopicity ([1]; class based on water uptake at 25° C./80% RH) | Kinetic Solubility [3] | Kinetic Solubility ([3]; listed as HCl Form A) | disproportionation ([3]; pH 7 buffer) | Solid-state Stability ([2]; listed as HCl salt Form A) | IC50 (ALK5 [4]) [nM] | IC50 (ALK5 [5]) [nM] | SMILES |
| --- | --- | --- | --- | --- | --- | --- | --- | --- | --- | --- |
| no form change | (0.60) % | Good physicochemical properties under |  |  |  |  |  |  |  | COc1cc(Nc2nccc(Nc3cccnc3-c3ccccn3)n2)ccc1N1CCN(C)CC1 [Freebase Form A] |
| no form change | (0.86) % | Good physicochemical properties under | Slightly hygroscopic | increased solubility | HCl Form A showed increased solubility | disproportionation was observed | good physicochemical properties |  |  | COc1cc(Nc2nccc(Nc3cccnc3-c3ccccn3)n2)ccc1N1CCN(C)CC1 [HCl Salt Form A] |
|  |  |  |  |  |  |  |  | 2300 | 309 | COc1cc(Nc2nccc(Nc3cccnc3-c3ccccn3)n2)ccc1N1CCN(C)CC1 [compound of structure (I)] |
